# Source: patent US20250296959A1, “B7-H3 TARGETING PEPTIDES AND CONSTRUCTS THEREOF” (Mariana Oncology Inc., priority 2024, published 2025)
# Like-named read-outs stand apart in the source and are kept apart here. Starred links: 1 amine or outer side, 2 acyl side, 3 side chain; linkers in the order of their positions; H or OH if unused. Positions of bridges follow the written chain, without caps; N, C: chain ends. Non-standard residues stand in square brackets, D forms with d. Residues, ends and D or L forms follow the SMILES beside them. Groups on a side chain read outwards from the residue. *: point of attachment. X4 = O=C(O)CN1CCN(CC(=O)O)CCN([C@H](CCC(=O)*)C(=O)O)CCN(CC(=O)O)CC1; Ala(piperidin-4-yl) = O=C([C@H](CC1CCN([*:3])CC1)N[*:1])[*:2]; DOTA = O=C(O)CN1CCN(CC(=O)O)CCN(CC(=O)*)CCN(CC(=O)O)CC1; Tyr(SO2F) = N[C@@H](Cc1ccc(OS(=O)(=O)F)cc1)C(=O)O; Trp(5-F) = N[C@@H](Cc1c[nH]c2ccc(F)cc12)C(=O)O; γGlu = O=C(O)[C@H](CCC(=O)[*:2])N[*:1]; Ala(4-THP) = N[C@@H](CC1CCOCC1)C(=O)O; Val(3-OH) = CC(C)(O)[C@H](N)C(=O)O; Trx = NC[C@H]1CC[C@H](C(=O)O)CC1; hCha = N[C@@H](CCC1CCCCC1)C(=O)O; PEG4 = NCCOCCOCCOCCOCCC(=O)O; Tle = CC(C)(C)[C@H](N)C(=O)O; hLeu = CC(C)CC[C@H](N)C(=O)O; PEG2 = NCCOCCOCCC(=O)O
# Biological target: T1, human 4lg B7-H3 (Homo sapiens, UniProt Q5ZPR3)
# T1 sequence (Q5ZPR3 29-534): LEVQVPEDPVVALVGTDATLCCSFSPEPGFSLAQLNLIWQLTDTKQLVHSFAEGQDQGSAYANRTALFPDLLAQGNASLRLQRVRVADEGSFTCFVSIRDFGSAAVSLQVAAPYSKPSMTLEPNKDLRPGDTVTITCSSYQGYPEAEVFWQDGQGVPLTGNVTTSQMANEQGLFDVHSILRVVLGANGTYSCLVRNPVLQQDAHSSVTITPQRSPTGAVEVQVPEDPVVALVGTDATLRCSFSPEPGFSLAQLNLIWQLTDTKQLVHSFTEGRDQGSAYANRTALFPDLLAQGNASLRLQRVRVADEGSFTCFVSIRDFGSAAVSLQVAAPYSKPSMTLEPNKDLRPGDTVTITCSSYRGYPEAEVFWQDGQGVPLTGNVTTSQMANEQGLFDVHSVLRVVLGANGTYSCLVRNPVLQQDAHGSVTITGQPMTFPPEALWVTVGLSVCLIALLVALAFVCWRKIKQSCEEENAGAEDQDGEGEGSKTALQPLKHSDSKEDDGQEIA
# Experiment: Affinity determination by surface plasmon resonance (SPR) to 4Ig B7-H3
# [1] = SPR KD—37° C., 4Ig B7-H3, 37° C. flow cell temperature
SMILES,Kd [1] [nM],Kd [nM]
"CC(=O)N[C@@H](CCC(C)C)C(=O)N[C@@H](Cc1ccc(O)cc1)C(=O)N[C@H]1CSSC[C@@H](C(=O)N[C@@H](Cc2c[nH]c3ccc(F)cc23)C(=O)N[C@@H](Cc2ccccc2)C(=O)N[C@H](C(=O)N[C@H](CCC(=O)O)C(N)=O)C(C)(C)O)NC(=O)[C@H](Cc2ccc(O)cc2)NC(=O)[C@H](C(C)C)NC(=O)[C@H](CC(=O)O)NC(=O)[C@H](CC2CCOCC2)NC(=O)[C@H](CC2CCN(C(=O)CCOCCOCCNC(=O)CN3CCN(CC(=O)O)CCN(CC(=O)O)CCN(CC(=O)O)CC3)CC2)NC(=O)CNC(=O)[C@H](C(C)(C)C)NC1=O [compound 474, Ac-hLeu-Y-C-Tbg-G-Pip(PEG2-DOTA)Ala-ThpA-D-V-Y-C-5FW-F-hydroxyVal-dGlu-CONH2] (Ac-[hLeu]YC[Tle]G[Ala(piperidin-4-yl)]([PEG2-DOTA])[Ala(4-THP)]DVYC[Trp(5-F)]F[Val(3-OH)][dE]-NH2; disulfide 3-11)",1 to 10,
"CC(=O)N[C@@H](CCC(C)C)C(=O)N[C@@H](Cc1ccc(O)cc1)C(=O)N[C@H]1CSSC[C@@H](C(=O)N[C@@H](Cc2c[nH]c3ccc(F)cc23)C(=O)N[C@@H](Cc2ccccc2)C(=O)N[C@H](C(=O)N[C@H](CCC(=O)O)C(N)=O)C(C)(C)O)NC(=O)[C@H](Cc2ccc(O)cc2)NC(=O)[C@H](C(C)C)NC(=O)[C@H](CC(=O)O)NC(=O)[C@H](CC2CCOCC2)NC(=O)[C@H](CC2CCN(C(=O)CC[C@H](C(=O)O)N3CCN(CC(=O)O)CCN(CC(=O)O)CCN(CC(=O)O)CC3)CC2)NC(=O)CNC(=O)[C@H](C(C)(C)C)NC1=O [compound 476, Ac-hLeu-Y-C-Tbg-G-Pip(R-DOTAGA)Ala-ThpA-D-V-Y-C-5FW-F-hydroxyVal-dGlu-CONH2] (Ac-[hLeu]YC[Tle]G[Ala(piperidin-4-yl)](X4)[Ala(4-THP)]DVYC[Trp(5-F)]F[Val(3-OH)][dE]-NH2; disulfide 3-11)",< 1,
"CC(=O)N[C@@H](CCC(C)C)C(=O)N[C@@H](Cc1ccc(OS(=O)(=O)F)cc1)C(=O)N[C@H]1CSSC[C@@H](C(=O)N[C@@H](Cc2c[nH]c3ccc(F)cc23)C(=O)N[C@@H](Cc2ccccc2)C(=O)N[C@H](C(=O)N[C@H](CCCCNC(=O)CN2CCN(CC(=O)O)CCN(CC(=O)O)CCN(CC(=O)O)CC2)C(=O)O)C(C)(C)O)NC(=O)[C@H](Cc2ccc(O)cc2)NC(=O)[C@H](C(C)C)NC(=O)[C@H](CC(=O)O)NC(=O)[C@H](CC2CCOCC2)NC(=O)[C@H](CC2CCNCC2)NC(=O)CNC(=O)[C@H](C(C)(C)C)NC1=O [compound 478, Ac-hLeu-FSY-C-Tbg-G-PipAla-ThpA-D-V-Y-C-5FW-F-hydroxyVal-dLys(DOTA)-COOH] (Ac-[hLeu][Tyr(SO2F)]C[Tle]G[Ala(piperidin-4-yl)][Ala(4-THP)]DVYC[Trp(5-F)]F[Val(3-OH)][dK](DOTA)-OH; disulfide 3-11)",,10 to 100
"CC(=O)N[C@@H](CCC(C)C)C(=O)N[C@@H](Cc1ccc(O)cc1)C(=O)N[C@H]1CSSC[C@@H](C(=O)N[C@@H](Cc2c[nH]c3ccc(F)cc23)C(=O)N[C@@H](Cc2ccccc2)C(=O)N[C@H](C(=O)N[C@H](CCCCNC(=O)CC[C@H](NC(=O)[C@H]2CC[C@H](CNC(=O)CN3CCN(CC(=O)O)CCN(CC(=O)O)CCN(CC(=O)O)CC3)CC2)C(=O)O)C(=O)O)C(C)(C)O)NC(=O)[C@H](Cc2ccc(O)cc2)NC(=O)[C@H](C(C)C)NC(=O)[C@H](CC(=O)O)NC(=O)[C@H](CC2CCOCC2)NC(=O)[C@H](CC2CCNCC2)NC(=O)CNC(=O)[C@H](C(C)(C)C)NC1=O [compound 481, Ac-hLeu-Y-C-Tbg-G-PipAla-ThpA-D-V-Y-C-5FW-F-hydroxyVal-dLys(gE-tranexamate-DOTA)-COOH] (Ac-[hLeu]YC[Tle]G[Ala(piperidin-4-yl)][Ala(4-THP)]DVYC[Trp(5-F)]F[Val(3-OH)][dK]([γGlu-Trx-DOTA])-OH; disulfide 3-11)",< 1,
"CC(=O)N[C@@H](CCC(C)C)C(=O)N[C@@H](Cc1ccc(O)cc1)C(=O)N[C@H]1CSSC[C@@H](C(=O)N[C@@H](Cc2c[nH]c3ccc(F)cc23)C(=O)N[C@@H](Cc2ccccc2)C(=O)N[C@H](C(=O)N[C@H](CO)C(=O)O)C(C)(C)O)NC(=O)[C@H](Cc2ccc(O)cc2)NC(=O)[C@H](C(C)C)NC(=O)[C@H](CC(=O)O)NC(=O)[C@H](CC2CCN(C(=O)CCOCCOCCOCCOCCNC(=O)CN3CCN(CC(=O)O)CCN(CC(=O)O)CCN(CC(=O)O)CC3)CC2)NC(=O)[C@H](CC2CCNCC2)NC(=O)CNC(=O)[C@H](C(C)(C)C)NC1=O [compound 483, Ac-hLeu-Y-C-Tbg-G-PipAla-Pip(PEG4-DOTA)Ala-D-V-Y-C-5FW-F-hydroxyVal-dSer-COOH] (Ac-[hLeu]YC[Tle]G[Ala(piperidin-4-yl)][Ala(piperidin-4-yl)]([PEG4-DOTA])DVYC[Trp(5-F)]F[Val(3-OH)][dS]-OH; disulfide 3-11)",< 1,
"CC(=O)N[C@@H](CCC(C)C)C(=O)N[C@@H](Cc1ccc(O)cc1)C(=O)N[C@H]1CSSC[C@@H](C(=O)N[C@@H](Cc2c[nH]c3ccc(F)cc23)C(=O)N[C@@H](Cc2ccccc2)C(=O)N[C@H](C(=O)N[C@H](CO)C(=O)O)C(C)(C)O)NC(=O)[C@H](Cc2ccc(O)cc2)NC(=O)[C@H](C(C)C)NC(=O)[C@H](CC(=O)O)NC(=O)[C@H](CC2CCN(C(=O)CCOCCOCCOCCOCCNC(=O)CN3CCN(CC(=O)O)CCN(CC(=O)O)CCN(CC(=O)O)CC3)CC2)NC(=O)[C@H](CC2CCOCC2)NC(=O)CNC(=O)[C@H](C(C)(C)C)NC1=O [compound 484, Ac-hLeu-Y-C-Tbg-G-ThpA-Pip(PEG4-DOTA)Ala-D-V-Y-C-5FW-F-hydroxyVal-dSer-COOH] (Ac-[hLeu]YC[Tle]G[Ala(4-THP)][Ala(piperidin-4-yl)]([PEG4-DOTA])DVYC[Trp(5-F)]F[Val(3-OH)][dS]-OH; disulfide 3-11)",< 1,
"CC(=O)N[C@@H](CCC1CCCCC1)C(=O)N[C@@H](Cc1ccc(O)cc1)C(=O)N[C@H]1CSSC[C@@H](C(=O)N[C@@H](Cc2c[nH]c3ccc(F)cc23)C(=O)N[C@@H](Cc2ccccc2)C(=O)N[C@H](C(=O)N[C@H](C)C(=O)O)C(C)(C)O)NC(=O)[C@H](Cc2ccc(O)cc2)NC(=O)[C@H](C(C)C)NC(=O)[C@H](CC(=O)O)NC(=O)[C@H](CC2CCOCC2)NC(=O)[C@H](CC2CCN(C(=O)CC[C@H](NC(=O)CN3CCN(CC(=O)O)CCN(CC(=O)O)CCN(CC(=O)O)CC3)C(=O)O)CC2)NC(=O)CNC(=O)[C@H](C(C)(C)C)NC1=O [compound 486, Ac-hCha-Y-C-Tbg-G-Pip(gE-DOTA)Ala-ThpA-D-V-Y-C-5FW-F-hydroxyVal-dAla-COOH] (Ac-[hCha]YC[Tle]G[Ala(piperidin-4-yl)]([γGlu-DOTA])[Ala(4-THP)]DVYC[Trp(5-F)]F[Val(3-OH)][dA]-OH; disulfide 3-11)",< 1,
"CC(=O)N[C@@H](CCC1CCCCC1)C(=O)N[C@@H](Cc1ccc(O)cc1)C(=O)N[C@H]1CSSC[C@@H](C(=O)N[C@@H](Cc2c[nH]c3ccc(F)cc23)C(=O)N[C@@H](Cc2ccccc2)C(=O)N[C@H](C(=O)N[C@H](C)C(=O)O)C(C)(C)O)NC(=O)[C@H](Cc2ccc(O)cc2)NC(=O)[C@H](C(C)C)NC(=O)[C@H](CC(=O)O)NC(=O)[C@H](CC2CCOCC2)NC(=O)[C@H](CC2CCN(C(=O)CC[C@H](NC(=O)CC[C@H](NC(=O)CN3CCN(CC(=O)O)CCN(CC(=O)O)CCN(CC(=O)O)CC3)C(=O)O)C(=O)O)CC2)NC(=O)CNC(=O)[C@H](C(C)(C)C)NC1=O [compound 487, Ac-hCha-Y-C-Tbg-G-Pip(gE-gE-DOTA)Ala-ThpA-D-V-Y-C-5FW-F-hydroxyVal-dAla-COOH] (Ac-[hCha]YC[Tle]G[Ala(piperidin-4-yl)]([γGlu-γGlu-DOTA])[Ala(4-THP)]DVYC[Trp(5-F)]F[Val(3-OH)][dA]-OH; disulfide 3-11)",< 1,
